Common to all, as to parameters: scale not given here
For assay [1], the system named is ZEAMX Corn, Field. The experiment in a line: Preemergence herbicidal evaluation, ZEAMX. It counts as in vivo, Zea mays, L. (Sammel-Bezeichnung). The following applies: preemergence. In outline: (§1)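 Seeds mixed with potting soil in cups, then sprayed preemergence with aqueous acetone test solution at about 0.013 to 0.800 kg per hectare equivalent. Cups kept under standard greenhouse care; plants rated on a visual scale four to five weeks after treatment.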

Assay [2] deals with ECHOG Barnyardgrass. As to the kind of experiment: Preemergence herbicidal evaluation, ECHOG. It counts as in vivo, Echinochloa crus-galli, (L.) Beau. To be noted: preemergence. The method in brief:
as §1

The subject of assay [3] is GLXMAW Soybean, Williams. The experiment in a line: Preemergence herbicidal evaluation, GLXMAW. In kind it is in vivo, Glycine max, (L.) Merr. cv Williams. To be noted: preemergence. The method in brief: as §1
Assay [4] concerns ECHOG Barnyardgrass. The experiment in a line: Postemergence herbicidal evaluation, ECHOG. To be noted: postemergence spray, rated about two-three weeks after treatment. In kind it is in vivo, Echinochloa crus-galli, (L.) Beau. In outline: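 Two-week-old seedlings sprayed postemergence with compound in 80/20 acetone/water plus 1.0% methylated seed oil, at about 0.006–0.400 kg/ha, through a nozzle at 40 psi. Plants kept under greenhouse conditions and visually rated about two–three weeks after treatment; ratings from repeat tests averaged.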

The test system of assay [5] is GALAP Galium. The experiment in a line: Preemergence herbicidal evaluation, GALAP. It counts as in vivo, Galium aparine. To be noted: preemergence. The method in brief:
as §1

We go through 1 molecule from US20020111274A1, “1-alkyl-3-[1-(substituted phenyl) benzotriazol-6-yl] uracils” (BASF Aktiengesellschaft, priority 2000, published 2002).

Take `Cc1ccc(O)c(-n2nnc3cc(F)c(-n4c(=O)cc(C(F)(F)F)n(C)c4=O)cc32)c1` [Example 31, 3-[5-Fluoro-1-(2-Hydroxy-5-Methylphenyl)-1H-1,2,3-Benzotriazol-6-yl]-1-Methyl-6-(Trifluoromethyl)-2,4(1H,3H)-(Pyrimidinedione)]: the ZEAMX herbicidal rating in assay [1] (rate 0.008 kg/ha), in assay [1] (rate 0.016 kg/ha), in assay [1] (rate 0.032 kg/ha), in assay [1] (rate 0.062 kg/ha) and in assay [1] (rate 0.125 kg/ha) was 0.0 in each case. Moreover, the ECHCG herbicidal rating in assay [2] (rate 0.008 kg/ha), in assay [2] (rate 0.016 kg/ha), in assay [2] (rate 0.032 kg/ha), in assay [2] (rate 0.062 kg/ha) and in assay [2] (rate 0.125 kg/ha) was 0.0 in each case. Also, the GLXMAW herbicidal rating in assay [3] (rate 0.008 kg/ha), in assay [3] (rate 0.016 kg/ha), in assay [3] (rate 0.032 kg/ha), in assay [3] (rate 0.062 kg/ha) and in assay [3] (rate 0.125 kg/ha) was 0.0 throughout. Also, the “Postemergence herbicidal rating ECHCG” value in assay [4] (0.008 kg/ha) worked out at 0.0; in assay [4] (0.016 kg/ha), 0.0; in assay [4] (0.032 kg/ha), 0.0; in assay [4] (0.062 kg/ha) it was 3.0. For the same molecule, the GALAP herbicidal rating in assay [5] (rate 0.008 kg/ha), in assay [5] (rate 0.016 kg/ha), in assay [5] (rate 0.032 kg/ha), in assay [5] (rate 0.062 kg/ha) and in assay [5] (rate 0.125 kg/ha) was 0.0 each time.
